Publication PMC3385512 (Science Translational Medicine, 2012)

What was measured:
[1] = tested on: parental, IL-3-dependent Ba/F3 cells; assay: Ba/F3 cell survival assay; type: cell-based, murine; conditions: parental Ba/F3 cells cultured with IL-3 (off-target toxicity control)
[2] = target: Ba/F3 cells expressing wild-type EML4-ALK (Homo sapiens, UniProt Q9HC35+Q9UM73); assay: Ba/F3 cell survival assay; type: cell-based; conditions: without IL-3
[3] = target: T1, Ba/F3 cells expressing EML4-ALK G1202R (Homo sapiens, UniProt Q9HC35+Q9UM73, G1202R); assay: Ba/F3 cell survival assay; type: cell-based
T1 sequence (Q9HC35+Q9UM73 with tags, fused parts or gaps Q9UM73:G1202R): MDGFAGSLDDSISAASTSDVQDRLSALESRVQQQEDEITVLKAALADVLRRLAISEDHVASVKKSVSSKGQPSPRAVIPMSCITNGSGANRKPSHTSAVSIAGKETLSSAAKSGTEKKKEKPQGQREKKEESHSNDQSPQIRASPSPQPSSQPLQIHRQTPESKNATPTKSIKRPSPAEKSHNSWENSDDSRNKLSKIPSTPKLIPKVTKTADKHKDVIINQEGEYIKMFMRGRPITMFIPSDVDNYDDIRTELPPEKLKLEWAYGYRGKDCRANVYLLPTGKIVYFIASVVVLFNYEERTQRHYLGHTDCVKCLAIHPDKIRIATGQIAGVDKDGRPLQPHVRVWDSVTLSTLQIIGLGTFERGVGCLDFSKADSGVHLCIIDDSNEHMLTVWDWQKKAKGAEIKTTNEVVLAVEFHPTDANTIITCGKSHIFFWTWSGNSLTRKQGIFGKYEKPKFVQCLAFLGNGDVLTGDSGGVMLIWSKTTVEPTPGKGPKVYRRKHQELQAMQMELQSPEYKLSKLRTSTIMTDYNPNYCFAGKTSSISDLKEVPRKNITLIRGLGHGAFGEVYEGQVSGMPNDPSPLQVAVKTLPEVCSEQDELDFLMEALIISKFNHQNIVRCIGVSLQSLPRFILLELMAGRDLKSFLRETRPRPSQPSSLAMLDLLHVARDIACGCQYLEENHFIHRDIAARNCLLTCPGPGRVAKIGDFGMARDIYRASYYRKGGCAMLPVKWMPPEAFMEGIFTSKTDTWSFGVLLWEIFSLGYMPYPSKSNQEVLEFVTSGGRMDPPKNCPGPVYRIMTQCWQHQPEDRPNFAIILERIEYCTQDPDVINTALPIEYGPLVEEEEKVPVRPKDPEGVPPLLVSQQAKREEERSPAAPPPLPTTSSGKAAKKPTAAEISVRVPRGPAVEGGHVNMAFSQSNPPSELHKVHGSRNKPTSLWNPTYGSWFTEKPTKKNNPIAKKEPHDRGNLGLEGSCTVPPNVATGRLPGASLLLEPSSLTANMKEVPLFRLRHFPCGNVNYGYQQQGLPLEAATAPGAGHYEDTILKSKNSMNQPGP

[4] = target: ALK (V1058-P1620) wild type (Homo sapiens, UniProt Q9UM73); assay: in vitro kinase assay; type: biochemical; conditions: in vitro kinase assay data, tables S1 and S2
[5] = tested on: KIT-overexpressing H3122 cells; conditions: imatinib 1 μM with crizotinib 1 μM and SCF 100 ng/ml
H3122 CR3 cells [6] = assay: cell survival assay; type: cell-based; conditions: for sensitivity in cell survival assay: H3122 CR3 (no ALK mutation, EGFR activation), gefitinib 2 μM in combination
H3122 CR3 cells [7] = conditions: H3122 CR3, 1 μM crizotinib, 2 μM gefitinib or the combination, 72 hours
[8] = target: Ba/F3 cells expressing EML4-ALK L1196M (Homo sapiens, UniProt Q9HC35+Q9UM73, L1196M); assay: Ba/F3 cell survival assay; type: cell-based; conditions: without IL-3
[9] = target: T2, Ba/F3 cells expressing EML4-ALK S1206Y (Homo sapiens, UniProt Q9HC35+Q9UM73, S1206Y); assay: Ba/F3 cell survival assay; type: cell-based; conditions: without IL-3
T2 sequence (Q9HC35+Q9UM73 with tags, fused parts or gaps Q9UM73:S1206Y): T1 sequence (Q9HC35+Q9UM73 with tags, fused parts or gaps Q9UM73:G1202R) with R641G, S645Y

[10] = target: Ba/F3 cells expressing EML4-ALK 1151Tins (Homo sapiens, UniProt Q9HC35+Q9UM73, DUP1151-1151); assay: Ba/F3 cell survival assay; type: cell-based; conditions: Ba/F3 EML4-ALK 1151Tins, without IL-3
[11] = tested on: phosphorylation of EML4-ALK; assay: phospho-ALK immunoblotting in Ba/F3 cells; type: cell-based; conditions: all Ba/F3 lines expressing wild-type or mutant EML4-ALK
H3122 CR2 cells = assay: cell survival assay; type: cell-based
H3122 cells [12] = assay: cell survival assay; type: cell-based; conditions: parental H3122 cells (EML4-ALK variant 1)
H3122 cells [13] = assay: apoptosis assay; type: cell-based; conditions: parental H3122, 1 μM crizotinib, 72 hours
MGH006 cells = conditions: from crizotinib-naive ALK-positive NSCLC patient
H3122 CR1 cells = assay: cells; conditions: Homo sapiens, NCI-H3122, 72 h

Sequence of ALK (V1058-P1620) wild type (Q9UM73 1058-1620): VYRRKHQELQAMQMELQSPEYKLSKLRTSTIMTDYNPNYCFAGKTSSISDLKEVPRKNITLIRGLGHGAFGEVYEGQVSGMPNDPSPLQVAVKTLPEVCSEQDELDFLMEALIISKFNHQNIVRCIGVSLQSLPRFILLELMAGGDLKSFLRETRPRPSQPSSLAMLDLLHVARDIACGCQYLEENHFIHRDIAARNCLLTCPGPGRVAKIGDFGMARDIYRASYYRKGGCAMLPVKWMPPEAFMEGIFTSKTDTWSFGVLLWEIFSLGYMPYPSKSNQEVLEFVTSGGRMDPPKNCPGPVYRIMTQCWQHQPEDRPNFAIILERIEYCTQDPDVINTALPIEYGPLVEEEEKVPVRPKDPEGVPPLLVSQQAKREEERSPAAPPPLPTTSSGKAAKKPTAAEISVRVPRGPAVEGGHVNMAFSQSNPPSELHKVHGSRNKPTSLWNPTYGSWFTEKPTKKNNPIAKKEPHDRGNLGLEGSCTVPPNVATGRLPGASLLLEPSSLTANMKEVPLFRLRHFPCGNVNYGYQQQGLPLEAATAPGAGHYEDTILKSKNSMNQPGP

In the case of `COc1cc(N2CCC(N3CCN(C)CC3)CC2)ccc1Nc1ncc(Cl)c(Nc2ccccc2S(=O)(=O)C(C)C)n1` [NVP-TAE684], the “activity in cell survival assay” value [1] is reported as “less effective”.

For `COc1cc(N2CCC(N3CCN(C)CC3)CC2)ccc1Nc1ncnc(Nc2ccccc2S(=O)(=O)C(C)C)n1` [ASP-3026], the “potency in cell survival assay” value [2] was “not as potent as crizotinib and CH5424802”, the “shift in IC50 compared to wild-type ALK (fold)” value ([3]; Ba/F3 EML4-ALK G1202R relative to wild-type) was “fourfold” and the “potency and selectivity against wild-type ALK in vitro” value [4] was “relatively potent and selective”.

`Cc1ccc(NC(=O)c2ccc(CN3CCN(C)CC3)cc2)cc1Nc1nccc(-c2cccnc2)n1` [imatinib] was tested, and the “effect on crizotinib-resistant phenotype” value [5] was “completely reversed the resistant phenotype”.

For `COc1cc2ncnc(Nc3ccc(F)c(Cl)c3)c2cc1OCCCN1CCOCC1` [gefitinib], the “sensitivity in cell survival assay” value (H3122 CR3 cells [6]) was “resistant” and the “induction of apoptosis” value (H3122 CR3 cells [7]) was “failed to induce apoptosis”.

With `C=CCNC1=C2C[C@@H](C)C[C@H](OC)[C@H](O)[C@@H](C)/C=C(\C)[C@H](OC(N)=O)[C@@H](OC)/C=C\C=C(/C)C(=O)NC(=CC1=O)C2=O` [17-AAG, 17-allylamino-17-demethoxygeldanamycin] the “potency / resistance in cell survival assay” value (“potency / resistance” below) [8] was “highly active”, the “potency / resistance” value ([3]; Ba/F3 EML4-ALK G1202R, without IL-3) was “highly active” and the “potency / resistance” value [9] was “highly active”. For the same compound, the “potency / resistance” value [10] was “highly active”, the “activity in cell survival assay” value [1] was “at relatively low concentrations” and the “effect on phospho-ALK and total ALK protein levels” value [11] was “decreased both phospho-ALK and total ALK protein levels”. For the same compound, the “sensitivity in cell survival assay” value (H3122 CR2 cells; H3122 CR2 (1151Tins)) was “highly susceptible” and the “sensitivity in cell survival assay” value (H3122 CR3 cells [6]) was “resistant”.

In the case of `C[C@@H](Oc1cc(-c2cnn(C3CCNCC3)c2)cnc1N)c1c(Cl)ccc(F)c1Cl` [crizotinib], the “sensitivity in cell survival assay” value (H3122 cells [12]) is reported as “highly sensitive”, the IC50 (H3122 CR2 cells; Homo sapiens, NCI-H3122, 72 h) is reported as greater than 1000 nM and the “sensitivity in cell survival assay” value (H3122 CR3 cells [6]) is reported as “resistant”. For the same compound, the IC50 (H3122 CR3 cells [6]; Homo sapiens, NCI-H3122, 72 h) was greater than 1000 nM, the “induction of apoptosis” value (H3122 cells [13]) was “marked apoptosis” and the “sensitivity in cell survival assay” value (MGH006 cells) was “sensitive”. For the same compound, the “induction of apoptosis” value (H3122 CR3 cells [7]) was “failed to induce apoptosis” and the IC50 (H3122 CR1 cells) was greater than 1000 nM.
